Tests used:
[1] = test system: antibody producing CHO cells; experiment: 2-liter stirred bioreactor fed-batch cell culture in basal Media 1/feed Media 2 supplemented with hypotaurine or analog; format: cell-based, Chinese hamster; details: for cell growth as measured by VCC: 12.95 mM hypotaurine or 10 mM carboxymethylcysteine in Media 1, 2 L bioreactor (FIG. 7A); for cell viability: 12.95 mM hypotaurine or 10 mM carboxymethylcysteine in Media 1, 2 L bioreactor (FIG. 7B); for antibody production (antibody titer by HPLC): 12.95 mM hypotaurine or 10 mM carboxymethylcysteine in Media 1, 2 L bioreactor (FIG. 8); for color intensity reduction of isolated antibody composition, specific color assay / color intensity reduction of isolated antibody composition, second color assay: 12.95 mM hypotaurine or 10 mM carboxymethylcysteine in Media 1, protein A pool 150 g/L; for color intensity reduction of isolated antibody composition, specific color assay: vs positive control (FIG. 9A); for color intensity reduction of isolated antibody composition, second color assay: vs positive control (FIG. 9B)
Protocol: Antibody producing CHO cells were inoculated at approximately 1.0×10^6 cells/mL in 2-liter stirred bioreactors (Applikon, Foster City, Calif.) containing 1 L of basal Media 1 supplemented with 12.95 mM hypotaurine or 10 mM carboxymethylcysteine (CAS number 638-23-3). Cells were cultured in fed-batch mode with addition of 100 mL of feed Media 2 per liter of cell culture fluid at days 3, 6 and 9 for initiation of the production phase. A positive control was included by culturing cells in Media 1 and 2 without hypotaurine supplementation. The concentration of glucose was analyzed every day and if the glucose concentration fell below 2 g/L, it was replenished from a […] stock solution of glucose for prevention of glucose depletion. Reactors were equipped with calibrated dissolved oxygen, pH and temperature probes. Dissolved oxygen was controlled on-line through sparging with air and/or oxygen. pH was controlled through addition of CO2 or Na2CO3 and antifoam was added to the cultures as needed. The cell cultures were maintained at pH 7.0 and a temperature of 37° C. from days 0 through 3, and then at 35° C. after day 3. The cell cultures were agitated at 275 rpm and the dissolved oxygen level was at 30% of air saturation. Osmolality was monitored using an osmometer from Advanced Instruments (Norwood, Mass.). Offline pH and metabolite concentrations were also determined daily using a Nova Bioprofile 400 (Nova Biomedical, Waltham, Mass.). VCC and cell viability was measured daily using a ViCell® automated cell counter (Beckman Coulter, Fullerton, Calif.). The cell culture fluid was collected daily by centrifuging 1 mL of cell culture fluid for determination of antibody titer using high performance liquid chromatography. At the end of the cell culture duration on day 14, when the amount of protein in the culture was approximately 2-10 g/L, the cell culture fluid from all samples was harvested by centrifugation. The monoclonal antibody in the harvested cell culture fluid was purified using protein A affinity chromatography. The protein A pool was concentrated to 150 g/L using Amicon Centricon centrifugal filter devices (Millipore Corporation, Billerica, Mass.). Color intensity of the concentrated antibody composition was measured in the concentrated protein A pool using two different assays wherein higher numerical values indicated higher color intensity and lower numerical values indicated lower color intensity. […] This color intensity reduction was confirmed by using a second color assay which detected an approximate 17% and 13% color intensity reduction in antibody compositions isolated from cell cultured in media supplemented with hypotaurine and carboxymethylcysteine, respectively (FIG. 9B).

IgG1 monoclonal antibody = experiment: Antioxidant incubation screening: color intensity of antibody composition after incubation in Media 1/Media 2 mixture; details: 1X test concentration in Media 1 + Media 2 mixture, 2 g/L IgG1 mAb, 5 days 37° C.; normalized to positive control (0% change)
Protocol: For antioxidant screening, a total volume of 40 ml media was prepared by mixing 1 part basal Media 1 and 0.3 part feed Media 2 to mirror a representative ratio of media used in cell culture conditions (Table 5). […] The samples were incubated at 37° C. with shaking at 250 rpm for a five day incubation period.
After incubation, the monoclonal antibody was purified using protein A affinity chromatography. The pool was concentrated to 150 g/L using Amicon Centricon centrifugal filter devices (Millipore Corporation, Billerica, Mass.). Color intensity of the concentrated antibody composition was measured in the concentrated protein A pool using an assay wherein higher numerical values indicate higher color intensity and lower numerical values indicate lower color intensity. The numerical results were normalized to the positive control, where the value for the positive control was set at 0% change in color intensity.

[2] = listed as carboxy methyl cysteine

Compound	cell growth as measured by VCC [1]	cell growth as measured by VCC [1, 2]	cell viability [1]	cell viability [1, 2]	antibody production (antibody titer by HPLC) [1]	antibody production (antibody titer by HPLC) [1, 2]	color intensity reduction of isolated antibody composition, specific color assay [1] [%]	color intensity reduction of isolated antibody composition, second color assay [1] [%]	reduction of color intensity of the antibody-containing compositions (IgG1 monoclonal antibody)
N[C@@H](CSCC(=O)O)C(=O)O [carboxymethylcysteine, (2R)-2-amino-3-[(carboxymethyl)sulfanyl]propanoic acid]	comparable	did not compromise	comparable	did not compromise	comparable levels of antibody titers	did not significantly reduce	13	~13	
NCCS(=O)O [hypotaurine, 2-aminoethane-1-sulfinate]							27	~17	
NCCS(=O)(=O)O [Taurine, 2-aminoethane-1-sulfonic acid]									approximately 5%

— patent US10676710B2, “Cell culture compositions with antioxidants and methods for polypeptide production” (Genentech, Inc., priority 2013, dated 2020)
